Test results reported in patent US8343951B2, “Volatile sulfide production inhibitor and method for inhibiting the production of volatile sulfide using the inhibitor” (Kabushiki Kaisha Hayashibara Seibutsu Kagaku Kenkyujo, priority 2006, dated 2013).

Key:
[1] = Hydrogen sulfide production from heated mackerel meat homogenate (headspace detecting tube); conditions: for Produced Volatile sulfide: hydrogen sulfide in headspace; for Inhibiting rate of volatile sulfide production: hydrogen sulfide, relative to control
Procedure: AA-2G (reagent grade, commercialized by Hayashibara Biochemical Laboratories, Inc.) was dissolved in distilled water to give a solution of a concentration of 10%. A certain amount of the solution and 5 ml of 500 mM phosphate buffer (pH 7.0) were put into measuring flask and filled up to 50 ml to give the test solutions containing AA-2G at the twofold concentration described in Table 1. Also the test solutions containing ascorbic acid were prepared in the same way except for using ascorbic acid (guaranteed regent) in place of AA-2G. Five ml of 500 mM phosphate buffer (pH 7.0) was filled up to 50 ml with distilled water to give control solution. Edible part of commercial mackerel fillet without bone and skin was chopped with trio blender and homogeneously stirred to make minced mackerel. Forty-five grams of the minced mackerel was put into a beaker and added with 45 g of the test solution or control solution to give the samples at the concentration of AA-2G or ascorbic acid described in Table 1. The samples were treated with homogenizer (produced by IKA Works Inc.) at ice-chilled temperature to give the homogenates as the test samples. PH of the homogenates is from 6.21 to 6.38. Ten grams of the above samples were put into 20 ml-vials and sealed with butyl rubber cap and aluminum seal. They were heated in boiled water bath for 15 minutes and cooled in running cool water. After cooled, they were heated on heating block (80° C.) for 10 minutes and the solidified samples were broken with vortex mixer. The amounts of hydrogen sulfide in the headspace gas were measured by hydrogen sulfide detecting tube ([…] No. 4LT, produced by GL Sciences Inc.). Also the inhibiting rate (%) of hydrogen sulfide production were shown in Table 1, which were obtained by subtracting the percentage amounts of hydrogen sulfide produced from 1 g of mackerel meats added with test solutions relative to the amount of hydrogen sulfide produced from 1 g of mackerel meat added with control solution from 100 to obtain.

[2] = Dimethyl-sulfide and dimethyl-disulfide production from heated milk (headspace gas chromatography); conditions: for Produced Dimethyl-disulfide / Produced Dimethyl-sulfide: milk heated 130° C. one minute; for production of volatile sulfides (dimethyl-sulfide and dimethyl-disulfide) from the test solutions / Produced Volatile sulfide: milk; for Inhibiting rate of volatile sulfide production: relative to control milk; for Produced Volatile sulfide: sum of dimethyl-sulfide and dimethyl-disulfide
Procedure: AA-2G (reagent grade, commercialized by Hayashibara Biochemical Laboratories, Inc.) was added in commercial milk to give the concentrations described in Table 2 to make the test solutions. Test solutions containing ascorbic acid were prepared in the same way except for using ascorbic acid (guaranteed regent) in place of AA-2G. The commercial milk was used plain as control. Sensory test of the solutions was performed by 11 panelists to evaluate the taste of each test solution added with AA-2G or ascorbic acid as being different (D) from control or as being the same (S) as control. As a result, eight or more of the 11 panelists gave a same evaluation to each test solution.
One ml of the above samples were put into 20 ml-vials and sealed with butyl rubber cap and aluminum seal. After heated at 130° C. for one minute, the amounts of dimethyl-sulfide and dimethyl-disulfide in the headspace were measured by gas chromatography in conventional way. The sums of them were shown as the amounts of volatile sulfide in Table 2. Also the inhibiting rates (%) of volatile sulfide production were shown in Table 2, which were obtained by subtracting the percentage amounts of volatile sulfide produced from ml of the test solutions relative to the amount of volatile sulfide produced from 1 ml of control (milk) from 100 to obtain.

Compound: O=C1O[C@H]([C@@H](O)CO)C(O)=C1O[C@H]1O[C@H](CO)[C@@H](O)[C@H](O)[C@H]1O [AA-2G, α-D-glucopyronosyl-(1→2)-L-ascorbic acid]
- hydrogen sulfide production from homogenate of mackerel meat ([1]; AA-2G concentration of 0.1%): enhanced
- hydrogen sulfide production from homogenate of mackerel meat ([1]; concentration in a range from 0.0005 to 0.5%, versus control): inhibited
- Produced Volatile sulfide ([1]; additive 0.0001% in sample): 44.5 μg/g-mackerel
- Produced Volatile sulfide ([1]; additive 0.0005% in sample): 30.7 μg/g-mackerel
- Produced Volatile sulfide ([1]; additive 0.001% in sample): 17.4 μg/g-mackerel
- Produced Volatile sulfide ([1]; additive 0.005% in sample): 11.5 μg/g-mackerel
- Produced Volatile sulfide ([1]; additive 0.01% in sample): 13.2 μg/g-mackerel
- Produced Volatile sulfide ([1]; additive 0.025% in sample): 16.1 μg/g-mackerel
- Produced Volatile sulfide ([1]; additive 0.05% in sample): 19.9 μg/g-mackerel
- Produced Volatile sulfide ([1]; additive 0.1% in sample): 25.9 μg/g-mackerel
- Produced Volatile sulfide ([1]; additive 0.5% in sample): 38.2 μg/g-mackerel
- Produced Volatile sulfide ([1]; additive 1.0% in sample): 48.5 μg/g-mackerel
- Inhibiting rate of volatile sulfide production ([1]; additive 0.0001% in sample): −3.0%
- Inhibiting rate of volatile sulfide production ([1]; additive 0.0005% in sample): 28.9%
- Inhibiting rate of volatile sulfide production ([1]; additive 0.001% in sample): 59.7%
- Inhibiting rate of volatile sulfide production ([1]; additive 0.005% in sample): 73.4%
- Inhibiting rate of volatile sulfide production ([1]; additive 0.01% in sample): 69.4%
- Inhibiting rate of volatile sulfide production ([1]; additive 0.025% in sample): 62.7%
- Inhibiting rate of volatile sulfide production ([1]; additive 0.05% in sample): 53.9%
- Inhibiting rate of volatile sulfide production ([1]; additive 0.1% in sample): 40.0%
- Inhibiting rate of volatile sulfide production ([1]; additive 0.5% in sample): 11.6%
- Inhibiting rate of volatile sulfide production ([1]; additive 1.0% in sample): −12.3%
- Produced Dimethyl-disulfide ([2]; additive 0.0001% in sample): 0.54 μg/ml-milk
- Produced Dimethyl-sulfide ([2]; additive 0.0001% in sample): 1.30 μg/ml-milk
- Produced Dimethyl-disulfide ([2]; additive 0.0005% in sample): 0.43 μg/ml-milk
- Produced Dimethyl-sulfide ([2]; additive 0.0005% in sample): 1.12 μg/ml-milk
- Produced Dimethyl-disulfide ([2]; additive 0.001% in sample): 0.37 μg/ml-milk
- Produced Dimethyl-sulfide ([2]; additive 0.001% in sample): 0.75 μg/ml-milk
- Produced Dimethyl-disulfide ([2]; additive 0.005% in sample): 0.14 μg/ml-milk
- Produced Dimethyl-sulfide ([2]; additive 0.005% in sample): 0.23 μg/ml-milk
- Produced Dimethyl-disulfide ([2]; additive 0.01% in sample): 0.14 μg/ml-milk
- Produced Dimethyl-sulfide ([2]; additive 0.01% in sample): 0.11 μg/ml-milk
- Produced Dimethyl-disulfide ([2]; additive 0.05% in sample): 0.07 μg/ml-milk
- Produced Dimethyl-sulfide ([2]; additive 0.05% in sample): 0.07 μg/ml-milk
- Produced Dimethyl-disulfide ([2]; additive 0.1% in sample): 0.07 μg/ml-milk
- Produced Dimethyl-sulfide ([2]; additive 0.1% in sample): 0.06 μg/ml-milk
- Produced Dimethyl-disulfide ([2]; additive 0.5% in sample): 0.08 μg/ml-milk
- Produced Dimethyl-sulfide ([2]; additive 0.5% in sample): 0.10 μg/ml-milk
- Produced Dimethyl-disulfide ([2]; additive 2.5% in sample): 0.19 μg/ml-milk
- Produced Dimethyl-sulfide ([2]; additive 2.5% in sample): 0.28 μg/ml-milk
- production of volatile sulfides (dimethyl-sulfide and dimethyl-disulfide) from the test solutions ([2]; concentration from 0.005 to 0.5%): strongly inhibited
- production of volatile sulfides (dimethyl-sulfide and dimethyl-disulfide) from the test solutions ([2]; concentration of 0.0005% or more, compared to control): inhibited
- Inhibiting rate of volatile sulfide production ([2]; additive 0.0001% in sample): 2.6%
- Inhibiting rate of volatile sulfide production ([2]; additive 0.0005% in sample): 18.0%
- Inhibiting rate of volatile sulfide production ([2]; additive 0.001% in sample): 40.7%
- Inhibiting rate of volatile sulfide production ([2]; additive 0.005% in sample): 80.4%
- Inhibiting rate of volatile sulfide production ([2]; additive 0.01% in sample): 86.8%
- Inhibiting rate of volatile sulfide production ([2]; additive 0.05% in sample): 92.6%
- Inhibiting rate of volatile sulfide production ([2]; additive 0.1% in sample): 93.1%
- Inhibiting rate of volatile sulfide production ([2]; additive 0.5% in sample): 90.5%
- Inhibiting rate of volatile sulfide production ([2]; additive 2.5% in sample): 75.1%
- Produced Volatile sulfide ([2]; additive 0.0001% in sample): 1.94 µg/mL
- Produced Volatile sulfide ([2]; additive 0.0005% in sample): 1.55 µg/mL
- Produced Volatile sulfide ([2]; additive 0.001% in sample): 1.12 µg/mL
- Produced Volatile sulfide ([2]; additive 0.005% in sample): 0.37 µg/mL
- Produced Volatile sulfide ([2]; additive 0.01% in sample): 0.25 µg/mL
- Produced Volatile sulfide ([2]; additive 0.05% in sample): 0.14 µg/mL
- Produced Volatile sulfide ([2]; additive 0.1% in sample): 0.13 µg/mL
- Produced Volatile sulfide ([2]; additive 0.5% in sample): 0.18 µg/mL
- Produced Volatile sulfide ([2]; additive 2.5% in sample): 0.47 µg/mL

Compound: O=C1O[C@H]([C@@H](O)CO)C(O)=C1O [Ascorbic acid, L-ascorbic acid, reference compound]
- hydrogen sulfide production from homogenate of mackerel meat ([1]; concentration of 0.005% or less): equal to control
- hydrogen sulfide production from homogenate of mackerel meat ([1]; concentration of 0.01% or more): enhanced
- Produced Volatile sulfide ([1]; additive 0.0001% in sample): 44.1 μg/g-mackerel
- Produced Volatile sulfide ([1]; additive 0.0005% in sample): 43.4 μg/g-mackerel
- Produced Volatile sulfide ([1]; additive 0.001% in sample): 43.6 μg/g-mackerel
- Produced Volatile sulfide ([1]; additive 0.005% in sample): 42.9 μg/g-mackerel
- Produced Volatile sulfide ([1]; additive 0.01% in sample): 71.7 μg/g-mackerel
- Produced Volatile sulfide ([1]; additive 0.025% in sample): 133.9 μg/g-mackerel
- Produced Volatile sulfide ([1]; additive 0.05% in sample): 139.3 μg/g-mackerel
- Produced Volatile sulfide ([1]; additive 0.1% in sample): 207.1 μg/g-mackerel
- Produced Volatile sulfide ([1]; additive 0.5% in sample): 257.4 μg/g-mackerel
- Produced Volatile sulfide ([1]; additive 1.0% in sample): 287.8 μg/g-mackerel
- Inhibiting rate of volatile sulfide production ([1]; additive 0.0001% in sample): −2.1%
- Inhibiting rate of volatile sulfide production ([1]; additive 0.0005% in sample): −0.5%
- Inhibiting rate of volatile sulfide production ([1]; additive 0.001% in sample): −0.9%
- Inhibiting rate of volatile sulfide production ([1]; additive 0.005% in sample): 0.7%
- Inhibiting rate of volatile sulfide production ([1]; additive 0.01% in sample): −66.0%
- Inhibiting rate of volatile sulfide production ([1]; additive 0.025% in sample): −210.0%
- Inhibiting rate of volatile sulfide production ([1]; additive 0.05% in sample): −222.5%
- Inhibiting rate of volatile sulfide production ([1]; additive 0.1% in sample): −379.4%
- Inhibiting rate of volatile sulfide production ([1]; additive 0.5% in sample): −495.8%
- Produced Dimethyl-disulfide ([2]; additive 0.0001% in sample): 0.56 μg/ml-milk
- Produced Dimethyl-sulfide ([2]; additive 0.0001% in sample): 1.32 μg/ml-milk
- Produced Dimethyl-disulfide ([2]; additive 0.0005% in sample): 0.54 μg/ml-milk
- Produced Dimethyl-sulfide ([2]; additive 0.0005% in sample): 1.41 μg/ml-milk
- Produced Dimethyl-disulfide ([2]; additive 0.001% in sample): 0.51 μg/ml-milk
- Produced Dimethyl-sulfide ([2]; additive 0.001% in sample): 1.28 μg/ml-milk
- Produced Dimethyl-disulfide ([2]; additive 0.005% in sample): 0.24 μg/ml-milk
- Produced Dimethyl-sulfide ([2]; additive 0.005% in sample): 0.71 μg/ml-milk
- Produced Dimethyl-disulfide ([2]; additive 0.01% in sample): 0.21 μg/ml-milk
- Produced Dimethyl-sulfide ([2]; additive 0.01% in sample): 0.45 μg/ml-milk
- Produced Dimethyl-disulfide ([2]; additive 0.05% in sample): 0.18 μg/ml-milk
- Produced Dimethyl-sulfide ([2]; additive 0.05% in sample): 0.54 μg/ml-milk
- Produced Dimethyl-disulfide ([2]; additive 0.1% in sample): 0.27 μg/ml-milk
- Produced Dimethyl-sulfide ([2]; additive 0.1% in sample): 0.61 μg/ml-milk
- Produced Dimethyl-disulfide ([2]; additive 0.5% in sample): 0.31 μg/ml-milk
- Produced Dimethyl-sulfide ([2]; additive 0.5% in sample): 0.74 μg/ml-milk
- Produced Dimethyl-disulfide ([2]; additive 2.5% in sample): 0.38 μg/ml-milk
- Produced Dimethyl-sulfide ([2]; additive 2.5% in sample): 1.07 μg/ml-milk
- production of volatile sulfides (dimethyl-sulfide and dimethyl-disulfide) from the test solutions ([2]; concentration of 0.001% or less): equal to control
- production of volatile sulfides (dimethyl-sulfide and dimethyl-disulfide) from the test solutions ([2]; concentration of 0.005%): inhibited
- Inhibiting rate of volatile sulfide production ([2]; additive 0.0001% in sample): 0.5%
- Inhibiting rate of volatile sulfide production ([2]; additive 0.0005% in sample): −3.2%
- Inhibiting rate of volatile sulfide production ([2]; additive 0.001% in sample): 5.3%
- Inhibiting rate of volatile sulfide production ([2]; additive 0.005% in sample): 49.7%
- Inhibiting rate of volatile sulfide production ([2]; additive 0.01% in sample): 65.1%
- Inhibiting rate of volatile sulfide production ([2]; additive 0.05% in sample): 61.9%
- Inhibiting rate of volatile sulfide production ([2]; additive 0.1% in sample): 53.4%
- Inhibiting rate of volatile sulfide production ([2]; additive 0.5% in sample): 44.4%
- Inhibiting rate of volatile sulfide production ([2]; additive 2.5% in sample): 23.3%
- Produced Volatile sulfide ([2]; additive 0.0001% in sample): 1.88 µg/mL
- Produced Volatile sulfide ([2]; additive 0.0005% in sample): 1.95 µg/mL
- Produced Volatile sulfide ([2]; additive 0.001% in sample): 1.79 µg/mL
- Produced Volatile sulfide ([2]; additive 0.005% in sample): 0.95 µg/mL
- Produced Volatile sulfide ([2]; additive 0.01% in sample): 0.66 µg/mL
- Produced Volatile sulfide ([2]; additive 0.05% in sample): 0.72 µg/mL
- Produced Volatile sulfide ([2]; additive 0.1% in sample): 0.88 µg/mL
- Produced Volatile sulfide ([2]; additive 0.5% in sample): 1.05 µg/mL
- Produced Volatile sulfide ([2]; additive 2.5% in sample): 1.45 µg/mL
